The values that follow come from patent US20040109896A1, “Aqueous suspension eyedrops and process for producing the same” (priority 2001, published 2004).

Each structure is given as a SMILES string.

In one data set the test system is herpes virus. The conditions noted are these: Crumpaker et al., Antimicrob. Agents Chemother. 15, 642 (1979); cited from earlier work.
Data set [1] is described as follows: Laser diffraction particle size distribution analysis of acyclovir fine crystals. The class given is physicochemical. The conditions noted are these: USP grade sterilized acyclovir fine crystals. On the procedure: USP grade, sterilized acyclovir was used as fine crystals of acyclovir without any processing. Through laser diffraction particle size distribution analysis, the crystals were determined to have an average particle size of 25.9 μm.

As to `Nc1nc2c(ncn2COCCO)c(=O)[nH]1` [acyclovir, 9-[(2-hydroxyethoxy)methyl]guanine], the “ID50 (50% inhibition level) of acyclovir against herpes virus” value in the data set on herpes virus is given as “approximately 0.03 μg/mL”. In data set [1], this compound had an average particle size of 25.9 μm.
